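Cells were grown in 96-well plates and exposed to each compound for 48 hours at five concentrations; endpoints were interpolated linearly between bracketing concentrations, or set to the highest concentration if not reached. GI50 = concentration required for 50% inhibition of growth.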 The source made the active and inactive calls. Rule as the data show it: active = GI50 up to about 1.1 µM and inactive = higher.
Experiments:
Assay in all cases: inhibition of tumour cell growth, NCI panel, 48 h
SNB-19 = tested on: SNB-19
SK-MEL-5 = tested on: SK-MEL-5
NCI-H522 = tested on: NCI-H522
Malme-3M = tested on: Malme-3M
OVCAR-4 = tested on: OVCAR-4
HCT-15 = tested on: HCT-15
IGROV-1 = tested on: IGROV-1
OVCAR-5 = tested on: OVCAR-5
SF-268 = tested on: SF-268
UO-31 = tested on: UO-31
SK-MEL-2 = tested on: SK-MEL-2
OVCAR-8 = tested on: OVCAR-8
NCI-H23 = tested on: NCI-H23
UACC-62 = tested on: UACC-62
786-0 = tested on: 786-0
TK-10 = tested on: TK-10
A549 = tested on: A549
NCI-H226 = tested on: NCI-H226
LOX IMVI = tested on: LOX IMVI
PC-3 = tested on: PC-3

| Compound | GI50 (SNB-19) | GI50 (SK-MEL-5) | GI50 (NCI-H522) | GI50 (Malme-3M) | GI50 (OVCAR-4) | GI50 (HCT-15) [µM] | GI50 (IGROV-1) | GI50 (OVCAR-5) | GI50 (SF-268) | GI50 (UO-31) | GI50 (SK-MEL-2) | GI50 (OVCAR-8) | GI50 (NCI-H23) | GI50 (UACC-62) | GI50 (786-0) | GI50 (TK-10) | GI50 (A549) | GI50 (NCI-H226) | GI50 (LOX IMVI) | GI50 (PC-3) |
| --- | --- | --- | --- | --- | --- | --- | --- | --- | --- | --- | --- | --- | --- | --- | --- | --- | --- | --- | --- | --- |
| O=C1c2cccc3cc([N+](=O)[O-])cc(c23)C(=O)N1NC1=NCCN1 | > 100 µM (inactive) | > 100 µM (inactive) | > 100 µM (inactive) | > 100 µM (inactive) | > 100 µM (inactive) | > 100 | > 100 µM (inactive) | > 100 µM (inactive) | > 100 µM (inactive) | > 100 µM (inactive) | > 100 µM (inactive) | > 100 µM (inactive) | > 100 µM (inactive) | > 100 µM (inactive) | > 100 µM (inactive) | > 100 µM (inactive) | > 100 µM (inactive) | > 100 µM (inactive) | > 100 µM (inactive) |  |
| O=[N+]([O-])c1ccc(NN=C2CN3CCN(C2)c2ccccc23)c([N+](=O)[O-])c1 | > 100 µM (inactive) | > 100 µM (inactive) | > 100 µM (inactive) | > 100 µM (inactive) | > 100 µM (inactive) | > 100 | 97.3 µM (inactive) | > 100 µM (inactive) | > 100 µM (inactive) | > 100 µM (inactive) |  | > 100 µM (inactive) | > 100 µM (inactive) | > 100 µM (inactive) | > 100 µM (inactive) | > 100 µM (inactive) | > 100 µM (inactive) |  | > 100 µM (inactive) | > 100 µM (inactive) |
| Cc1cc(Cl)ccc1NC(=O)CC1SC(N)=NC1=O (configuration not stated) | > 100 µM (inactive) | > 100 µM (inactive) | > 100 µM (inactive) | > 100 µM (inactive) | > 100 µM (inactive) | > 100 | > 100 µM (inactive) | > 100 µM (inactive) | > 100 µM (inactive) | > 100 µM (inactive) | > 100 µM (inactive) | > 100 µM (inactive) | > 100 µM (inactive) | > 100 µM (inactive) | > 100 µM (inactive) | > 100 µM (inactive) | > 100 µM (inactive) | > 100 µM (inactive) | > 100 µM (inactive) |  |
| Cc1ccc(NC(=O)C2C3C=CC(O3)C2C(=O)O)cc1 (configuration not stated) | > 100 µM (inactive) | > 100 µM (inactive) | > 100 µM (inactive) | > 100 µM (inactive) | > 100 µM (inactive) | > 100 | > 100 µM (inactive) | > 100 µM (inactive) | > 100 µM (inactive) | > 100 µM (inactive) | > 100 µM (inactive) | > 100 µM (inactive) | > 100 µM (inactive) | > 100 µM (inactive) | 53.3 µM (inactive) | > 100 µM (inactive) | > 100 µM (inactive) | > 100 µM (inactive) | 23.7 µM (inactive) |  |
| O=C1c2ccccc2C(=O)c2sc(Nc3ccc(Cl)c(Cl)c3)nc21 | 6.04 µM (inactive) | 2.32 µM (inactive) | 2.07 µM (inactive) | 4.16 µM (inactive) | 2.21 µM (inactive) | 2.26 | 3.82 µM (inactive) | 2.9 µM (inactive) | 4.97 µM (inactive) | 2.12 µM (inactive) | 8.26 µM (inactive) | 3.7 µM (inactive) | 2.31 µM (inactive) | 2.59 µM (inactive) | 1.82 µM (inactive) | 11.1 µM (inactive) | 23.5 µM (inactive) | 1.48 µM (inactive) | 2.17 µM (inactive) |  |
| O=[N+]([O-])c1ccccc1[S+]([O-])c1ccccc1 (configuration not stated) | 87.3 µM (inactive) | 36.8 µM (inactive) | 65.6 µM (inactive) | > 100 µM (inactive) | 49.2 µM (inactive) | 38.7 | 68.2 µM (inactive) | > 100 µM (inactive) | 77.6 µM (inactive) | 63.5 µM (inactive) | > 100 µM (inactive) | > 100 µM (inactive) | 44.5 µM (inactive) | > 100 µM (inactive) | > 100 µM (inactive) | > 100 µM (inactive) | 52.8 µM (inactive) | 49.9 µM (inactive) | 21.1 µM (inactive) |  |
| CC(C)C(=O)Nc1nc2[nH]cnc2c(=O)[nH]1 | > 100 µM (inactive) | > 100 µM (inactive) | > 100 µM (inactive) | > 100 µM (inactive) | > 100 µM (inactive) | > 100 | > 100 µM (inactive) | > 100 µM (inactive) | > 100 µM (inactive) | > 100 µM (inactive) | > 100 µM (inactive) | > 100 µM (inactive) | > 100 µM (inactive) | > 100 µM (inactive) | > 100 µM (inactive) | > 100 µM (inactive) | > 100 µM (inactive) | > 100 µM (inactive) | > 100 µM (inactive) |  |
| CCNC1=Nc2ccc(Cl)cc2C(c2ccccc2)=NN1 | 41.7 µM (inactive) | 14.8 µM (inactive) | 14.6 µM (inactive) | 16.9 µM (inactive) | 31.6 µM (inactive) | 16.9 | 22.4 µM (inactive) | 21.8 µM (inactive) | 31.3 µM (inactive) | 30.2 µM (inactive) | 16.7 µM (inactive) | 26.8 µM (inactive) | 27.5 µM (inactive) | 14.6 µM (inactive) | 17.8 µM (inactive) | 28.4 µM (inactive) | 35.7 µM (inactive) | 20.7 µM (inactive) | 18.9 µM (inactive) |  |
| CSc1nc2c(c(O)c(C)c(=O)n2C2OC(COC(C)=O)C(OC(C)=O)C(OC(C)=O)C2OC(C)=O)c(=O)n1C (configuration not stated) | > 100 µM (inactive) | > 100 µM (inactive) | > 100 µM (inactive) | > 100 µM (inactive) | > 100 µM (inactive) | > 100 | > 100 µM (inactive) | > 100 µM (inactive) | > 100 µM (inactive) | > 77.4 µM (inactive) | > 100 µM (inactive) | > 100 µM (inactive) | > 100 µM (inactive) | > 100 µM (inactive) | > 100 µM (inactive) | > 100 µM (inactive) | > 100 µM (inactive) | > 100 µM (inactive) | > 100 µM (inactive) |  |
| CC(C)(C)c1cc(-c2c3nc(c(-c4cc(C(C)(C)C)cc(C(C)(C)C)c4)c4ccc([nH]4)c(-c4cc(C(C)(C)C)cc(C(C)(C)C)c4)c4nc(c(-c5cc(C(C)(C)C)cc(C(C)(C)C)c5)c5ccc2[nH]5)C=C4)C=C3)cc(C(C)(C)C)c1 | > 100 µM (inactive) | > 100 µM (inactive) | > 100 µM (inactive) | > 100 µM (inactive) | > 100 µM (inactive) | > 100 | > 100 µM (inactive) | > 100 µM (inactive) | > 100 µM (inactive) | > 100 µM (inactive) | > 100 µM (inactive) | > 100 µM (inactive) | > 100 µM (inactive) | > 100 µM (inactive) | > 100 µM (inactive) | > 100 µM (inactive) | > 100 µM (inactive) | > 100 µM (inactive) | > 100 µM (inactive) |  |
| ON=C1CCC(c2ccccc2)CC1 (configuration not stated) | > 100 µM (inactive) | > 100 µM (inactive) | > 100 µM (inactive) | > 100 µM (inactive) | > 100 µM (inactive) | > 100 | > 100 µM (inactive) | > 100 µM (inactive) | > 100 µM (inactive) | > 100 µM (inactive) | > 100 µM (inactive) | > 100 µM (inactive) | > 100 µM (inactive) | > 100 µM (inactive) | > 100 µM (inactive) | > 100 µM (inactive) | > 100 µM (inactive) | > 100 µM (inactive) | > 100 µM (inactive) |  |
| CN(C)c1n/c(=N/c2ncn[nH]2)ss1 | > 100 µM (inactive) | > 100 µM (inactive) | > 100 µM (inactive) | > 100 µM (inactive) | > 100 µM (inactive) | > 100 | > 100 µM (inactive) | > 100 µM (inactive) | > 100 µM (inactive) | > 100 µM (inactive) | > 100 µM (inactive) | > 100 µM (inactive) | > 100 µM (inactive) | > 100 µM (inactive) | > 100 µM (inactive) | > 100 µM (inactive) | > 100 µM (inactive) | > 100 µM (inactive) | > 100 µM (inactive) |  |
| CN1CCC(=O)/C(=C/c2ccccc2)C1 | 17.1 µM (inactive) | 17.9 µM (inactive) | 8.95 µM (inactive) | 19.5 µM (inactive) | 17.9 µM (inactive) | 7.06 | 16 µM (inactive) | 15.7 µM (inactive) | 17.5 µM (inactive) | 17.9 µM (inactive) | 20.5 µM (inactive) | 22 µM (inactive) | 17.5 µM (inactive) | 21.9 µM (inactive) | 12.5 µM (inactive) | 16.1 µM (inactive) | 17.7 µM (inactive) | 16.8 µM (inactive) | 5.58 µM (inactive) |  |
| O=C(O)COc1ccc(C(=O)/C(SS/C(C(=O)c2ccc(OCC(=O)O)c(Cl)c2Cl)=C2\C=C(c3ccc(Cl)cc3)SS2)=C2/C=C(c3ccc(Cl)cc3)SS2)c(Cl)c1Cl | 8.99 µM (inactive) | 16.7 µM (inactive) | 2.18 µM (inactive) | 33.7 µM (inactive) | 5.27 µM (inactive) | 5.78 | 13.3 µM (inactive) | 30.1 µM (inactive) | 11.2 µM (inactive) | 4.89 µM (inactive) | 14.1 µM (inactive) | 5.85 µM (inactive) | 9.23 µM (inactive) | 9.51 µM (inactive) | 13.5 µM (inactive) | 24.7 µM (inactive) | 21.4 µM (inactive) | 5.66 µM (inactive) | 3.93 µM (inactive) |  |
| C[n+]1c(-c2ccc(/C=N\Nc3ccnc(N/N=C/c4ccc(-c5cn6ccsc6[n+]5C)cc4)n3)cc2)cn2ccsc21 | 37.6 µM (inactive) | 10.6 µM (inactive) | > 100 µM (inactive) | 29.7 µM (inactive) | 58.1 µM (inactive) | 64.4 | 11.2 µM (inactive) | 16.7 µM (inactive) |  | 20 µM (inactive) |  | 27.4 µM (inactive) | 11.5 µM (inactive) | 24.4 µM (inactive) | 10.9 µM (inactive) | 20.3 µM (inactive) | 31.3 µM (inactive) | 16.4 µM (inactive) |  | 48.3 µM (inactive) |

Source: ChEMBL document CHEMBL1201862, “PubChem BioAssay data set” (2004)
